Data: article PMC11855827, “High-Throughput Screening of Five Compound Libraries for Anthelmintic Activity and Toxicity Leads to the Discovery of Two Flavonoid Compounds” (International Journal of Molecular Sciences, 2025)
Values joined by “and” are separate entries in the source; they are usually repeats but may differ in a detail not shown here. Equal values may be shown once. Where a name gives a salt, the structure may show the parent alone. Read-outs that look alike come from different tables or passages of the source.

Columns and labels:
C. elegans [1] = assay: microbe, parasite or virus in culture; details: Caenorhabditis elegans
C. elegans [2] = details: for Percentage of motility inhibition 0 h / Percentage of motility inhibition 24 h: Table S2, C. elegans SS assay, 110 μM, averages of 4 data points
[3] = 0 h, read-out: Percentage of motility inhibition 0 h
[4] = 24 h, read-out: Percentage of motility inhibition 24 h
[5] = 0 h, read-out: Percentage of motility inhibition 0 h, Table S2, C. elegans SS assay, 110 μM, 0 h, averages of 4 data points
[6] = 24 h, read-out: Percentage of motility inhibition 24 h, Table S2, C. elegans SS assay, 110 μM, 24 h, averages of 4 data points

Compound | Percentage of motility inhibition 0 h (C. elegans [2]) | Percentage of motility inhibition 24 h (C. elegans [2]) | other results
O=c1c(O)c(-c2ccc(O)cc2)oc2c(O)c(O)cc(O)c12 [Herbacetin] |  |  | inhibition at 110 µM (C. elegans [1]; [3]): 4%; inhibition at 110 µM (C. elegans [1]; [4]): 13%
C[C@@H]1C[C@@H]([C@H](O)CC2CC(=O)NC(=O)C2)C(=O)[C@@H](C)C1 [Cycloheximide] |  |  | inhibition at 110 µM (C. elegans [1]; [5]): 17%; inhibition at 110 µM (C. elegans [1]; [6]): 0%
COc1cc2c(cc1OC)[C@@H]1C(=O)c3ccc4c(c3O[C@@H]1CO2)C=CC(C)(C)O4 [Deguelin] |  |  | inhibition at 110 µM (C. elegans [1]; [5]): 0%; inhibition at 110 µM (C. elegans [1]; [6]): 0%
CC1(C)[C@H](C(=O)O)N2C(=O)C[C@H]2S1(=O)=O [Sulbactam] |  |  | inhibition at 110 µM (C. elegans [1]; [3]): 1%; inhibition at 110 µM (C. elegans [1]; [4]): 9%
CCCCCCCCCCCCCCCCO [1-Hexadecanol] |  |  | inhibition at 110 µM (C. elegans [1]; [5]): 17%; inhibition at 110 µM (C. elegans [1]; [6]): 0%
C=C[C@@]1(C)CC[C@H]2C(=CC[C@@H]3[C@]2(C)CCC[C@@]3(C)C(=O)O)C1 [Isopimaric acid] |  |  | inhibition at 110 µM (C. elegans [1]; [3]): 0%; inhibition at 110 µM (C. elegans [1]; [4]): 14%
Cc1cc(=O)oc2cc(O)ccc12 [4-Methylumbelliferone] |  |  | inhibition at 110 µM (C. elegans [1]; [5]): 4%; inhibition at 110 µM (C. elegans [1]; [6]): 3%
C[C@H](O)[C@H](O)[C@H]1CNc2nc(N)[nH]c(=O)c2N1 [Tetrahydrobiopterin] |  |  | inhibition at 110 µM (C. elegans [1]; [5]): 0%; inhibition at 110 µM (C. elegans [1]; [6]): 3%
O=C(CC1NCCCC1O)Cn1cnc2cc(Br)c(Cl)cc2c1=O (stereo not shown) [Halofuginone] |  |  | inhibition at 110 µM (C. elegans [1]; [5]): 18%; inhibition at 110 µM (C. elegans [1]; [6]): 11%
C[C@H](CC(=O)C[C@@H](C)[C@H]1C[C@H](O)[C@@]2(C)C3=C(C(=O)C[C@]12C)[C@@]1(C)CCC(=O)C(C)(C)[C@@H]1C[C@@H]3O)C(=O)O [Ganoderic acid A] |  |  | inhibition at 110 µM (C. elegans [1]; [5]): 15%; inhibition at 110 µM (C. elegans [1]; [6]): 6%
CC(C)=CCc1c(-c2ccc(O)cc2O)oc2c3c(cc(O)c2c1=O)OC(C)(C)C=C3 [Morusin] |  |  | inhibition at 110 µM (C. elegans [1]; [5]): 33%; inhibition at 110 µM (C. elegans [1]; [6]): 14%
CC(=O)O[C@@H]1C[C@]23C4=CC[C@@]5(C)[C@H](C(=O)O)[C@@](C)([C@H](C)C(C)C)CC[C@]5(C)[C@H]4CC[C@H]2[C@@](C)(COC3O)[C@H]1O[C@@H]1O[C@H](CO)[C@@H](O)[C@H](O)[C@H]1O (stereo partly shown) [Enfumafungin] |  |  | inhibition at 110 µM (C. elegans [1]; [5]): 0%; inhibition at 110 µM (C. elegans [1]; [6]): 60%
C=CC1=C(C(=O)O)N2C(=O)[C@@H](NC(=O)/C(=N\O)c3csc(N)n3)[C@H]2SC1 [Cefdinir] |  |  | inhibition at 110 µM (C. elegans [1]; [5]): 0%; inhibition at 110 µM (C. elegans [1]; [6]): 0%
CC(C)OC(=O)[C@H](C)N[P@](=O)(CO[C@H](C)Cn1cnc2c(N)ncnc21)Oc1ccccc1 [GS‐7340] |  |  | inhibition at 110 µM (C. elegans [1]; [3]): 11%; inhibition at 110 µM (C. elegans [1]; [4]): 1%
C[C@@H]1O[C@@H](OC[C@H]2O[C@@H](Oc3c(-c4ccc(OCCO)c(OCCO)c4)oc4cc(OCCO)cc(O)c4c3=O)[C@H](O)[C@@H](O)[C@@H]2O)[C@H](O)[C@H](O)[C@H]1O [Troxerutin] | 0% and 3% | 0% and 6% | 
(‐)‐Sparteine | 0% | 4% | 
COc1cc2c3cc1Oc1c(OC)c(OC)cc4c1[C@@H](Cc1ccc(O)c(c1)Oc1ccc(cc1)C[C@@H]3N(C)CC2)N(C)CC4 [Berbamine (dihydrochloride)] | 33% and 53% | 11% and 15% | 
C=C1C[C@@]23CC[C@H]4[C@@](C)(CCC[C@@]4(C)C(=O)O[C@@H]4O[C@H](CO)[C@@H](O)[C@H](O[C@@H]5O[C@H](CO)[C@@H](O)[C@H](O)[C@H]5O)[C@H]4O[C@@H]4O[C@H](CO)[C@@H](O)[C@H](O)[C@H]4O)[C@@H]2CC[C@]1(O[C@@H]1O[C@H](CO)[C@@H](O)[C@H](O[C@@H]2O[C@H](CO)[C@@H](O)[C@H](O)[C@H]2O)[C@H]1O[C@@H]1O[C@H](CO)[C@@H](O)[C@H](O)[C@H]1O)C3 [Rebaudioside M] | 7% | 0% | 
CC1(C)CC[C@]2(C(=O)O[C@@H]3O[C@H](CO)[C@@H](O)[C@H](O)[C@H]3O)CC[C@]3(C)C(=CC[C@@H]4[C@@]5(C)CC[C@H](O[C@@H]6O[C@H](C(=O)O)[C@@H](O)[C@H](O[C@@H]7OC[C@@H](O)[C@H](O)[C@H]7O)[C@H]6O)C(C)(C)[C@@H]5CC[C@]43C)[C@@H]2C1 [Momordin IIc] | 0% | 0% | 
CO/N=C(\C(=O)N[C@@H]1C(=O)N2C(C(=O)[O-])=C(COC(C)=O)CS[C@H]12)c1csc(N)n1.[Na+] [Cefotaxime (sodium salt)] | 30% | 34% | 
Hyaluronic acid | 0% | 4% | 
C=CC/C(=N\OS(=O)(=O)[O-])S[C@@H]1O[C@H](CO)[C@@H](O)[C@H](O)[C@H]1O.O.[K+] [Sinigrin (hydrate)] | 0% | 19% | 
O=C(O)[C@H]1O[C@@H](Oc2c(-c3ccc(O)cc3)oc3cc(O)cc(O)c3c2=O)[C@H](O)[C@@H](O)[C@@H]1O [Kaempferol 3‐O‐β‐D‐glucuronide] | 5% | 0% | 

Compound | Percentage of motility inhibition 0 h (C. elegans [2]) | Percentage of motility inhibition 24 h (C. elegans [2]) | other results
O=c1c2ccccc2nc2n1CC[C@@H]2O [Vasicinone] | 0% | 0% | 
CN[C@@H]1[C@H](O)[C@H](NC)[C@H]2O[C@@]3(O)C(=O)C[C@@H](C)O[C@H]3O[C@@H]2[C@H]1O.Cl.Cl [Spectinomycin (dihydrochloride)] | 0% | 1% | 
Eprinomectin [reference compound] | 96% | 86% | Inhibition (%) 110 μM (0 h) (C. elegans [2]): 91 ± 3%; Inhibition (%) 110 μM (24 h) (C. elegans [2]): 92 ± 3%
COc1cc2c(cc1OC)C(Cc1ccc(O)cc1)N(C)CC2 (stereo not shown) [Armepavine] | 0% | 12% | 
CC(C)CCC[C@@H](C)[C@H]1CC[C@@]2(C)C3=C(CC[C@]12C)[C@@]1(C)CC[C@H](O)C(C)(C)[C@@H]1CC3 [24,25-Dihydrolanosterol] | 3% | 4% | 
CC[C@@]1(O)C(=O)OCc2c1cc1n(c2=O)Cc2cc3c(CN(C)C)c(O)ccc3nc2-1.Cl [Topotecan (hydrochloride)] | 19% | 6% | 
CC1(C)OC2CC(=O)OCC23C1CC(=O)C1(C)C2=CC(=O)OC(c4ccoc4)C2(C)CCC13 (stereo not shown) [Deoxylimonin] | 9% | 50% | 
C[C@@H]1CC[C@]2(C(=O)O[C@@H]3O[C@H](CO)[C@@H](O)[C@H](O)[C@H]3O)CC[C@]3(C)C(=CC[C@@H]4[C@@]5(C)CC[C@H](O)[C@](C)(C(=O)O)[C@@H]5CC[C@]43C)[C@@H]2[C@]1(C)O [Ilexsaponin A] | 0% | 12% | 
O=c1c(O[C@@H]2O[C@H](CO[C@@H]3O[C@H](CO)[C@@H](O)[C@H](O)[C@H]3O)[C@@H](O)[C@H](O)[C@H]2O)c(-c2ccc(O)c(O)c2)oc2cc(O)cc(O)c12 [Quercetin 3‐gentiobioside] | 42% | 0% | 
C[C@@H]1CC[C@H]2[C@@H](C)C(=O)O[C@@H]3O[C@@]4(C)CC[C@@H]1[C@]32OO4 [Artemisinin] |  | 9% and 0% | 
Cycleanine | 4% | 4% | 
CC(C)=CCC[C@@](C)(O)[C@H]1CC[C@]2(C)[C@@H]1[C@H](O)C[C@@H]1[C@@]3(C)CC[C@H](O[C@@H]4O[C@H](CO)[C@@H](O)[C@H](O)[C@H]4O)C(C)(C)[C@@H]3CC[C@]12C [20(R)-Ginsenoside Rh2] | 11% | 6% | 
O=c1c2cc(O[C@@H]3O[C@H](CO)[C@@H](O)[C@H](O)[C@H]3O)c(O)cc2oc2cc(O)c([C@@H]3O[C@H](CO)[C@@H](O)[C@H](O)[C@H]3O)c(O)c12 [Neomangiferin] | 7% | 17% | 
Theaflavin‐3'‐gallate | 9% | 0% | 
COc1ccc(-c2oc3c(CC=C(C)C)c(O)cc(O)c3c(=O)c2O[C@@H]2O[C@@H](C)[C@H](O)[C@@H](O)[C@H]2O[C@@H]2O[C@@H](C)[C@H](O)[C@@H](O)[C@H]2O)cc1 [2''‐O‐Rhamnosylicariside II] | 0% | 13% | 
O=C(N[C@@H](c1ccccc1)[C@@H](O)C(=O)O)c1ccccc1 [N‐Benzoyl‐(2R,3S)‐3‐phenylisoserine] | 54% | 29% | 
O=c1cc(-c2ccc(O)cc2)oc2cc(O[C@@H]3O[C@H](CO)[C@@H](O)[C@H](O)[C@H]3O)cc(O)c12 [Apigenin 7‐glucoside] | 10% | 40% | 
CN1CCCN=C1/C=C/c1cccc(O)c1.O=C(O)c1cc2ccccc2c(Cc2c(O)c(C(=O)O)cc3ccccc23)c1O [Oxantel (pamoate)] | 54% | 33% | 
COc1c(O[C@@H]2O[C@H](C(=O)O)[C@@H](O)[C@H](O)[C@H]2O)cc(O)c2c(=O)cc(-c3ccccc3)oc12 [Wogonoside] | 6% | 2% | 
COc1cc2c(cc1OC)-c1cc3ccc4c(c3c[n+]1CC2)OCO4.[Cl-] [Epiberberine (chloride)] | 22% | 8% | 
O=c1c2cc(O)c(O)cc2oc2c([C@@H]3O[C@H](CO)[C@@H](O)[C@H](O)[C@H]3O)c(O)cc(O)c12 [Isomangiferin] | 28% | 46% | 
CNCC(O)c1ccc(O)cc1 (stereo not shown) [p‐Synephrine] | 13% | 0% | 
